Patent US20240018125A1, “CYCLIC ISOTHIOUREA DERIVATIVES AS CXCR4 MODULATORS” (ERMIUM THERAPEUTICS, priority 2020, published 2024)
Where a name gives a salt, the structure may show the parent alone.

Tests used:
[1] = test system: peripheral blood mononuclear cells (PBMCs) from healthy donors; assay: IFN production by R848-activated PBMCs, quantified with twINNE luciferase reporter cell line; format: cell-based, human; details: Homo sapiens, PBMC; read-out: IC50 of anti-inflammatory activity (IFN production by activated PBMCs)
Outline: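 Functional IFN was quantified by luciferase output from the twINNE ISRE-reporter line after 24 h on conditioned supernatants. Those supernatants came from human PBMCs (4.10^6/mL) pre-treated with compound and then stimulated for 24 h with 5 μg/mL resiquimod. IC50s were fitted by nonlinear variable-slope regression.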

[2] = biological target: T1, human CXCR4 (hCXCR4) receptor (Homo sapiens, UniProt P61073); assay: BRET assay of antagonist activity on the CXCR4-CXCL12 signaling pathway (Gαi2 recruitment) in HEK-293 T cells; format: cell-based; details: HEK-293 T cells with hCXCR4, Gαi2 and BRET biosensors; 10 min with compound, then EC80 CXCL12
T1 construct: expressed in transfected cells; host or cells: HEK-293 T cells, transient co-transfection with polyethylenimine
Protocol: Examples of the present invention were tested for their antagonist activity on human CXCR4 (hCXCR4) receptor transiently over-expressed in HEK-293 T cells. Compounds exert antagonist activity if they decrease the action of CXCL12 on the receptor.
The specific effector (luciferase tagged: BRET donor) recruited at the membrane will be in close proximity to a plasma membrane anchor (GFP tagged: BRET acceptor) to induce a BRET signal (Hamdan et a1, 2006, Chapter 5, Current Protocols in Neuroscience).
HEK-293 T cells are maintained in Dulbecco's Modified Eagle's Medium supplemented with 10% Foetal Calf Serum, 1% Penicillin/Streptomycin at 37° C./5% CO2. Cells are co-transfected using polyethylenimine (25 kDa linear) with several DNA plasmids encoding: hCXCR4; Gai2; an intracellular effector fused to luciferase (BRET donor); a plasma membrane effector fused to GFP (BRET acceptor). After transfection, cells are cultured for 48 h at 37° C./5% CO2. On the day of the assay, cells are detached using trypsin 0.05%, resuspended in assay buffer (1.8 mM CaCl2, 1 mM MgCl2, 2.7 mM KCl, 137 mM NaCl, 0.4 mM NaH2PO4, 5.5 mM D-Glucose, 11.9 mM NaHCO3, 25 mM Hepes) and seeded in 384 well plate at a density of 20,000 cells per well. Then, plates are equilibrated 3.5 h at 37° C. before adding compounds. Compounds and luciferase substrate are added to the cells using an automated device (Freedom Evo®, Tecan) and BRET readings are collected on EnVision (PerkinElmer) with specific filters (410 nm BW 80 nm, 515 nm BW 30 nm).
Cells are first incubated for 10 minutes with the compound alone. Then, cells are stimulated by an EC80 CXCL12 concentration for additional 10 minutes and luminescence is recorded. EC80 CXCL12 concentration is the concentration giving 80% of the maximal CXCL12 response. Antagonist activity is evaluated in comparison to basal signals evoked by EC80 CXCL12 alone.
For IC50 determination, a dose-response test is performed using 20 concentrations (ranging over 6 logs) of each compound. Dose-response curves are fitted using the sigmoidal dose-response (variable slope) analysis in GraphPad Prism software (GraphPad Software) and IC50 of antagonist activity is calculated. Dose-response experiments are performed in duplicate, in two independent experiments.
HEK-293 T cells were transfected to allow measuring the recruitment of Gai2 proteins involved in intracellular signaling by human CXCR4 receptor (hCXCR4) via the BRET technology. Cells were then incubated with various concentrations of examples of the invention before stimulation with an EC80 concentration of CXCL12.

Male C57BL/6 Rj mice = assay: In vivo evaluation of CXCR4 antagonistic activity by mobilisation of blood cells; parameters: species or system mouse; details: 20 mg/kg single i.p., 2:30 h after injection; shown also for neutrophils, monocytes, lymphocytes, eosinophils
Protocol: Male C57BL/6 Rj mice (7 weeks old) were obtained from Janvier (Le Genest-Saint-Isle, France). Mice were treated by a single intraperitoneal (i.p.) administration at timepoint 0 h. The experimental groups (n=10) were defined as follows: • Mice of group 1 were treated with vehicle only (0.9% NaCl aqueous solution) • Mice of group 2 were treated with AMD3100 (CXCR4 antagonist, Sigma-Aldrich, St Louis, USA) at 20 mg/kg (volume of 10 mL/kg) in 0.9% NaCl aqueous solution • Mice of group 3 were treated with an exemplary compound of formula (I), i.e. Example 60, at 30 mg/kg (volume of 10 mL/kg) in 0.9% NaCl aqueous solution
After 2:30 h, whole blood (at least 200 μl, max 1 mL) was collected in EDTA tubes before sacrifice by an intracardiac puncture under isoflurane anaesthesia and haematology parameters were determined the same day by laser flow cytometry, optical fluorescence and Laminar Flow Impedance™ using the ProCyte Dx hematology analyser (IDEXX, Eau Claire, USA). Differential leukocyte counts were performed to quantify specific immune cell types. Data are reported as total number of cells (K/μL), mean±S.E.M., as well as the statistical significance versus the vehicle control group using unpaired t-tests.

[3] = biological target: T2, Recombinant CXCR4 receptor (Homo sapiens, UniProt P61073); assay: G.Validation fluorescence assay of CXCR4 receptor conformational changes in lipidic micelles SB2L4 and SB3L1; format: biochemical; details: SB2L4 and SB3L1, 40 min
T2 construct: host or cells: HEK-293 T cells
Source text: G.Validation® assay is […] biotech proprietary fluorescence based assay that assesses conformational changes of a receptor upon activation/inactivation. Recombinant CXCR4 receptor is produced and purified from HEK-293 T cells using […] proprietary mixes. Receptor is then reconstituted in detergent buffers containing lipids mimicking the lipidic composition of dendritic cells (DC) and macrophages (SB2L4 and SB3L1). Thereafter, the receptor is labelled with a non-modifying probe allowing the detection of the activation state and conformational change of the receptor upon addition of a ligand. Indeed, the probe emission spectra maximum wavelength (Amax) shifts according to activation/inactivation of the receptor. Thus, kinetic of activation/inactivation of the receptor can be followed by monitoring Amax shift after addition of a ligand over time. Emission spectra were registered for 40 minutes after addition of each ligand. […] Activation/inactivation kinetics were also followed using an exemplary compound of formula (I), i.e.

[4] = test system: irrelevant G-protein coupled receptor (GPCR); assay: G.Validation fluorescence assay on irrelevant GPCR control; format: biochemical; details: SDF1α 15 μM, AMD3100 100 μM, Example 60 150 μM; SB3L1
[5] = test system: monocytes from healthy donors; assay: Intracellular TNFα, IL-6 and IL-1β production by R848-activated monocytes after CXCR4 siRNA knockdown or AMD3100 block (flow cytometry); format: cell-based, human
Source text: The blood from healthy donors was obtained from “Etablissement Français du Sang” (convention #19/EFS/029), Paris, France.
Peripheral blood mononuclear cells (PBMCs) were isolated by density centrifugation from peripheral blood leukocyte separation medium, lymphoprep (Stemcell Technologies, Vancouver, Canada).
Monocytes used for in vitro experiments as described in part C/D were purified by positive selection with human CD14 microbeads (Miltenyi Biotec, Bergisch Gladbach, Germany) from PBMCs.
Monocytes were cultured in RPMI 1640 (Sigma-Aldrich, St Louis, USA) containing 10% heat-inactivated Fetal Bovine Serum (FBS, Sigma-Aldrich, St Louis, USA) at 37° C./5% CO2.
PBMCs and monocytes used herein were prepared as described in part A ‘Immune cells preparation’, above. Monocytes as prepared in part C ‘In vitro knockdown using siRNA or CXCR4 antagonist treatment’ and D ‘Quantification of TNFα, IL-6 and IL1β productions’ were incubated with one exemplary compound of formula (I), i.e. […] Monocytes were analysed by flow cytometry. For intracellular TNFα, IL-6 and IL-1p labelling as described in Part D ‘Quantification of TNFα, IL-6 and IL-1β productions’, Brefeldin A (BFA) was added to the cells 30 minutes after R848 stimulation.
Isolated monocytes were seeded at 10^5 cells/100 μL in 96-well plates and incubated at 37° C.
Monocytes were then treated with small interfering RNA (siRNA) which target the chemokine receptor CXCR4 mRNA (siCXCR4) (Smart Pool, Dharmacon, Lafayette, USA), or with control siRNAs (siCTL) and coupled to a transfection agent DOTAP (Roche Applied Science, Penzberg, Germany). The mix was gently mixed and incubated at room temperature for 15 minutes. After incubation, the mix was added to cells in culture at a final concentration of 160 nM. Finally, cells were incubated at 37° C. for 24 hours.
Alternatively, monocytes were treated after seeding with the CXCR4 antagonist AMD3100 (Sigma-Aldrich, USA) at 20 μM for 1 hour.
Monocytes as treated in part C, were washed in phosphate-buffered saline (PBS) and incubated with a viability marker (Zombie Aqua, Biolegend, San Diego, USA) for 30 minutes at room temperature. After washing, cells were resuspended in PBS containing 2% FBS and 2 mM ethylenediaminetetraacetic acid (EDTA) and labelled with anti-CD14 antibody (clone REA599, Miltenyi Biotech, Bergisch Gladbach, Germany), used at 1:100. For intracellular labelling of TNFα, IL-6 and IL-1β, the “Inside Stain” kit (Miltenyi Biotec, Bergisch Gladbach, Germany) was used according to the manufacturer's protocol. Cells were fixed for 20 minutes at room temperature with 250 μL of Inside Fix solution and then labelled in 100 μL of Inside Perm solution containing anti-TNFα antibody (clone cA2), anti-IL-6 antibody (clone REA1037) or anti-IL-1p antibody (clone REA1172) at 1/500 for 30 minutes at room temperature (all from Miltenyi Biotec, Bergisch Gladbach, Germany). Data acquisition was performed on the Canto II flow cytometer using Diva software (BD Biosciences, San Jose, USA). FlowJo software was used to analyse the data.

[6] = AMD3100 20 μM, Example 77 10, 50 and 500 nM, R848

T1 sequence (P61073 whole entry): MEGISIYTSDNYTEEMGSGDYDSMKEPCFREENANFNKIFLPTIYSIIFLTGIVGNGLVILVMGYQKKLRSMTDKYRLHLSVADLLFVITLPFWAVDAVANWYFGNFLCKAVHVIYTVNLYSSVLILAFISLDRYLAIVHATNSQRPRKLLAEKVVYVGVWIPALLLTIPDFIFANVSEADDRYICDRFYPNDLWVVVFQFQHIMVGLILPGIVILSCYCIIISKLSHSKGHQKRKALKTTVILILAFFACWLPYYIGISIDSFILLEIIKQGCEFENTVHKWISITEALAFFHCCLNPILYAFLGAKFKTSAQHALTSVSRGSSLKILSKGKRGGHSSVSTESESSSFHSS
T2 sequence (P61073 whole entry): as above

Clc1ccc2c(c1)CN1C(CSC3=NCc4ccccc4N3)=CSC1=N2 [Example 19, 7-chloro-3-(((1,4-dihydroquinazolin-2-yl)thio)methyl)-5H-thiazolo[2,3-b]quinazoline dihydrochloride]
IC50 [1]: ≤ 10 µM
IC50 [2]: ≥ 15 µM

c1cc(CN2CCCNCCNCCCNCC2)ccc1CN1CCCNCCNCCCNCC1 [AMD3100, plerixafor, reference compound]
numbers of white blood cells in the blood vs vehicle control (Male C57BL/6 Rj mice): significantly higher
CXCR4 structural activation/inactivation, Amax shift in fluorescence ([3]; ligand 100 μM added after Example 60 150 μM): did not reverse Example 60 effect
CXCR4 structural activation/inactivation, Amax shift in fluorescence ([3]; ligand 100 μM added after SDF1α 15 μM): reversed SDF1α effect with a blue shift
irrelevant GPCR activation state, Amax shift in fluorescence [4]: Neither benchmark ligands SDF1α and AMD3100, nor Example 60 showed any effect

c1ccc2c(c1)CN=C(SCCN1CCCC1)N2 [Example 77, 2-((2-(pyrrolidin-1-yl)ethyl)thio)-1,4-dihydroquinazoline dihydrochloride]
IL-1β production by activated monocytes in the presence of Example 77 with CXCR4 blocked by AMD3100 [5, 6]: restored
TNFα production by activated monocytes in the presence of Example 77 with CXCR4 blocked by AMD3100 [5, 6]: restored
IL-1β production by activated monocytes in the presence of Example 77 after CXCR4 siRNA ([5]; siCXCR4 vs siCTL, Example 77 50 nM, R848 1 μg/mL, % IL-1β positive cells): restored
IL-6 production by activated monocytes in the presence of Example 77 after CXCR4 siRNA ([5]; siCXCR4 vs siCTL, Example 77 50 nM, R848 1 μg/mL, % IL-6 positive cells): restored
TNFα production by activated monocytes in the presence of Example 77 after CXCR4 siRNA ([5]; siCXCR4 vs siCTL, Example 77 50 nM, R848 1 μg/mL, % TNFα positive cells): restored
IC50 [1]: ≤ 10 µM
IC50 [2]: ≥ 15 µM

C1=C(CSC2=NCc3ccccc3N2)N2CC(Cc3ccccc3)N=C2S1 (centres unmarked) [Example 65, 6-benzyl-3-(((3,4-dihydroquinazolin-2-yl)thio)methyl)-5,6-dihydroimidazo[2,1-b]thiazole dihydrochloride]
IC50 [1]: ≤ 10 µM
IC50 [2]: ≥ 15 µM

c1ccc(CC2CN=C(SCCCc3ccncc3)N2)cc1 (centres unmarked) [Example 55, 4-(3-((5-benzyl-4,5-dihydro-1H-imidazol-2-yl)thio)propyl)pyridine dihydrochloride]
IC50 [1]: 10 to 32 µM
IC50 [2]: ≥ 15 µM
